Test results as given in publication PMC11613273, “High-Affinity Peptides for Target Protein Screened in Ultralarge Virtual Libraries” (ACS Central Science, 2024).
Where no end group is shown, it is not given here.

How the values were obtained:
SARS-CoV-2 RBD = SARS-CoV-2 RBD (Severe acute respiratory syndrome coronavirus 2, UniProt P0DTC2); assay type: binding; settings: maximum steady-state BLI response signal from fit
Noro P-domain = Noro P-domain (Norovirus Hu/GII.4/Sydney/NSW0514/2012/AU, UniProt K4LM89); test: BLI analysis, steady-state; assay type: binding, Norovirus GII.4; settings: maximum steady-state BLI response signal from fit
AFP = target: T1, AFP (Homo sapiens, UniProt P02771); test: BLI analysis, steady-state; assay type: binding; settings: for Kd: BLI Octet Red96, biotinylated target on SSA sensors, peptide 3.125 to 200 nM, 25°C, kinetics buffer (10 mM PBS, 0.1% BSA, 0.05% Tween-20), steady-state fit, 1:1 model; for Rmax: maximum steady-state BLI response signal from fit
T1 construct: purchased Sino Biological Co., LTD; (Beijing)
T1 sequence (P02771 19-609): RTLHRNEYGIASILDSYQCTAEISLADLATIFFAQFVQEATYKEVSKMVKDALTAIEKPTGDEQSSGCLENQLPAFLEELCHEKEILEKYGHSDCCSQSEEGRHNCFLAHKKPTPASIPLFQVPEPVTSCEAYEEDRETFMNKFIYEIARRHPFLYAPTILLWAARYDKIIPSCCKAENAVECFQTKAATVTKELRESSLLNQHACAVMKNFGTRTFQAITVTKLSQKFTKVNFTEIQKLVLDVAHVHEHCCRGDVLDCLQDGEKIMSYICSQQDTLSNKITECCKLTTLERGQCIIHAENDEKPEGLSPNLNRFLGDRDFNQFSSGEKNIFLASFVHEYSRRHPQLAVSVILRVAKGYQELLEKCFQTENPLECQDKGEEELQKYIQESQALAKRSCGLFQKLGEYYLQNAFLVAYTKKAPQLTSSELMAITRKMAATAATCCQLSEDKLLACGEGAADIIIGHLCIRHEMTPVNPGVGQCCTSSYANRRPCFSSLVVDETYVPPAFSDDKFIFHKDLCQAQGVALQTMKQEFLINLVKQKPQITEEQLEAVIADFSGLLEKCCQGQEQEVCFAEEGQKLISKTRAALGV

Sequence | Rmax (SARS-CoV-2 RBD) | Rmax (Noro P-domain) | Kd (AFP) | Rmax (AFP)
CPPPAPQFPFPWPPW [Pep-2458] | 0.2149±0.0080 nm | – | – | –
CPPPFPGRPPPWPPF [Pep-1927] | 0.1296±0.0076 nm | – | – | –
CPPPPPYYKPPGHPP [Pep-6626] | 0.1940±0.0063 nm | – | – | –
FFGPPPWPPPPPPWY [Pep-3076] | – | 0.4267±0.0208 nm | – | –
FPPPPPHPWPPPPWA [Pep-21] | – | 0.7092±0.0344 nm | – | –
FPPPPWWDWPPPPWW [Pep-595] | – | 0.4957±0.0130 nm | – | –
PIWWYHAEKPEHWPI [Pep-5890] | – | – | 74.8 ± 11 nM | 0.2242±0.0144 nm
WWALEHYPPPYMQIW [Pep-6973] | – | – | 69.3 ± 14.4 nM | 0.2449±0.0216 nm
WWWWWPHHDWKLVWC [Pep-7937] | – | – | 40.6 ± 7.31 nM | 0.0945±0.0061 nm
